Earlier results, collected in patent publication US20260199285A1, “TAXANE FORMULATIONS” (BIOPURIFICATION, LLC, priority 2022, published 2026).

Legend:
[1] = tested on: advanced breast carcinoma

## CC(=O)O[C@@]12CO[C@@H]1C[C@H](O)[C@@]1(C)C(=O)[C@H](O)C3=C(C)[C@@H](OC(=O)[C@H](O)[C@@H](NC(=O)OC(C)(C)C)c4ccccc4)C[C@@](O)([C@@H](OC(=O)c4ccccc4)[C@H]21)C3(C)C [docetaxel]
Tubulin depolymerization
  inhibitory activity of tubulin depolymerization relative to paclitaxel: about 2 times
[1]
  effective ratio for treatment of advanced breast carcinoma: 49%
